Data as given in US7407948B2, “Photosensitisers and their uses” (priority 2007, dated 2008).
Like-named read-outs stand apart in the source and are kept apart here.

Key:
[1] = Singlet oxygen yield relative to Methylene Blue; assay type: physicochemical; details: in methanol, relative to MB
[2] = Partition coefficient log P; assay type: physicochemical; details: 2-octanol/0.1 M aqueous potassium phosphate at pH 7
Source text: Partition coefficient (2-octanol/0.1 M aqueous potassium phosphate at pH 7): log P=>2.

[3] = tested on: E. coli; assay: Photoinactivation of bacteria by phenoselenazinium derivatives (E. coli); assay type: cell-based; details: 10 μM photosensitiser, 30 min 37° C., 665 nm laser, 3 J/cm^2 (10 mW/cm^2)
Method: (§1) 1 mM stock solutions of the photosensitisers were made up by solubilising the photosensitiser in dimethyl sulfoxide.
(§2) Bacteria (E. coli, S. aureus) and yeast (C. albicans) cells were grown at 37° C. until the cells reached the logarithmic growth phase. Bacterial cells were grown in nutrient media, yeast cells were grown in Sabouraud media (obtainable via Millipore Limited, Watford, England).
(§3) Following the incubation, the log phase cells were washed twice in 0.1 M pH7.0 potassium phosphate buffer. The cells were then resuspended in buffer to give 3.5×10^8 CFU/ml for E. coli and S. aureus, or 1.0×10^7 CFU/ml for C. albicans.
(§4) The cells were incubated for 30 min at 37° C. with 10 μM photosensitiser. Following the incubation 2 mL of the cell suspension was removed into a 30 mm sterile Petri dish. The cell containing dish was then illuminated with a 665 nm Ceramoptec diode laser (trade mark of Ceramoptec GmBH, Germany and obtainable from Biolitec, Germany), at a light dose of 3 J/cm^2 (10 mW/cm^2).
(§5) Cells of the illuminated and non illuminated cultures were serially diluted and plated on either: nutrient agar (E. coli and S. aureus) or sabouraud agar (C. albicans). The plates were incubated for 24 h (E. coli and C. albicans) or 48 h (S. aureus). The colonies on the plates were counted as a measure of cell survival.

[4] = tested on: subcutaneous CaNT tumours; assay: Anti-tumour efficacy in vivo (PDT, tumour necrosis); parameters: species or system CBA/gy mice; details: 60 J/cm^2 660±15 nm, 72 h after illumination
Method: (§6) Tumour destruction was assessed in CBA/gy mice bearing subcutaneous CaNT tumours. The photosensitiser was administered intravenously at doses up to 16.7 μmol/kg. At various times after photosensitiser administration, the tumour was illuminated superficially with 60 J/cm^2, 50 mW/cm^2 light from a Paterson lamp using a 660±15 nm filter. Drug-light intervals ranged from 0 h (in practice, 1-2 minutes) up to 96 h. 72 h after illumination a cross sectional slice was removed from the centre of the tumour parallel to the incident light, an image of this was captured and the macroscopic necrotic area quantified using image analysis software. Necrosis was expressed as % area of the total tumour slice. % tumour necrosis in control tumours was generally <10%.
(§7) The phenoselenazinium compounds were dissolved and administered in a composition comprising 25% Solutol, 10% ethanol, 65% saline vehicle.

[5] = tested on: S. aureus; assay: Photoinactivation of bacteria by phenoselenazinium derivatives (S. aureus); assay type: cell-based; details: 10 μM photosensitiser, 30 min 37° C., 665 nm laser, 3 J/cm^2 (10 mW/cm^2)
Method: as §1, §2, §3, §4, §5

[6] = tested on: C. albicans; assay: Photoinactivation of yeast by phenoselenazinium derivatives (C. albicans); assay type: cell-based; details: 10 μM photosensitiser, 30 min 37° C., 665 nm laser, 3 J/cm^2 (10 mW/cm^2)
Method: as §1, §2, §3, §4, §5

[7] = tested on: normal tissues surrounding the tumour (usually kidney); assay type: in vivo; details: arbitrary score 0-3, i.v. dose 1.67 μmol/Kg
Method: as §6
An arbitrary score 0-3 of the severity of damage to normal tissues surrounding the tumour (usually kidney) was also recorded. 0=no detectable damage; 1=minimal damage to one organ; 2=damage to more than one organ; 3=death
as §7

[8] = i.v. dose 1.67 μmol/Kg, drug to light interval 0 h
[9] = i.v. dose 1.67 μmol/Kg, drug to light interval 1 h
[10] = i.v. dose 8.4 μmol/Kg, drug to light interval 1 h

Structure (SMILES)	Singlet oxygen yield (relative to Methylene Blue) [1]	logP [2]	Log change in CFU/mL [3]	% tumour necrosis ([4]; i.v. dose 0.84 μmol/Kg, drug to light interval 0 h)	% tumour necrosis ([4]; i.v. dose 0.84 μmol/Kg, drug to light interval 1 h)	% tumour necrosis [4, 8]	% tumour necrosis [4, 9]	Log change in CFU/mL [5]	Log change in CFU/mL [6]	% tumour necrosis ([4]; i.v. dose 8.4 μmol/Kg, drug to light interval 0 h)	% tumour necrosis [4, 10]	% tumour necrosis ([4]; i.v. dose 16.7 μmol/Kg, drug to light interval 0 h)	% tumour necrosis ([4]; i.v. dose 4.18 μmol/Kg, drug to light interval 0 h)	% tumour necrosis ([4]; i.v. dose 6.26 μmol/Kg, drug to light interval 0 h)	% tumour necrosis ([4]; i.v. dose 8.34 μmol/Kg, drug to light interval 0 h)	Normal tissue damage ([7]; drug to light interval 0 h)	Normal tissue damage ([7]; drug to light interval 1 h)
CCCCN(CCCC)c1ccc2nc3ccc(N(CCCC)CCCC)cc3[se+]c2c1 [Compound 1, 3,7-Bis-(N,N-dibutylamino)phenoselenazin-5-ylium bromide]	0.9	> 2	5.48 (0.34) log CFU/mL	93%	40%	88%	88%	0.21 (0.01) log CFU/mL	0.00 (0.05) log CFU/mL	–	–	–	–	–	–	–	–
CCCN(CCC)c1ccc2nc3ccc(N(CCC)CCC)cc3[se+]c2c1 [Compound 2, 3,7-Bis-(N,N-dipropylamino)phenoselenazin-5-ylium iodide]	1.1	> 2	3.16 (0.03) log CFU/mL	–	–	55%	–	1.70 (0.48) log CFU/mL	0.35 (0.42) log CFU/mL	87%	17%	100%	–	–	–	–	–
CCN(CC)c1ccc2nc3ccc(N(CC)CC)cc3[se+]c2c1 [Compound 3, 3,7-Bis-(N,N-diethylamino)phenoselenazin-5-ylium iodide]	1.5	1.5	3.78 (0.28) log CFU/mL	–	–	0%	0%	2.72 (0.87) log CFU/mL	0.16 (0.22) log CFU/mL	–	–	–	–	–	–	–	–
CCCCCN(CCCCC)c1ccc2nc3ccc(N(CCCCC)CCCCC)cc3[se+]c2c1 [Compound 4, 3,7-Bis-(N,N-dipentylamino)phenoselenazin-5-ylium iodide]	1.4	> 2	3.66 (2.23) log CFU/mL	–	–	10%	–	0.95 (0.73) log CFU/mL	0.17 (0.02) log CFU/mL	–	–	–	45%	80%	80%	–	–
CCCCCCN(CCCCCC)c1ccc2nc3ccc(N(CCCCCC)CCCCCC)cc3[se+]c2c1 [Compound 5, 3,7-Bis-(N,N-dihexylamino)phenoselenazin-5-ylium iodide]	1.1	> 2	0.02 (0.13) log CFU/mL	–	–	0%	–	0.18 (0.12) log CFU/mL	−0.03 (0.03) log CFU/mL	–	30%	–	–	–	–	–	–
CCCCN(CCCC)c1ccc2nc3ccc(N(CCC)CCC)cc3[se+]c2c1 [Compound 6, 3-N,N-dibutylamino-7-N,N-dipropylamino-phenoselenazin-5-ylium iodide]	1.1	> 2	6.54 (0.00) log CFU/mL	–	–	75%	15%	2.66 (2.26) log CFU/mL	6.12 (0.82) log CFU/mL	–	–	–	–	–	–	–	–
CN(C)c1ccc2nc3ccc(N(C)C)cc3[se+]c2c1.[I-] [Compound A, 3,7-N,N-dimethylamino-phenoselenazin-5-ylium iodide, reference compound]	–	–	3.33 (0.01) log CFU/mL	–	–	0%	0%	1.74 (0.41) log CFU/mL	0.19 (0.06) log CFU/mL	–	–	–	–	–	–	0	0
